Laboratory results from publication PMC11855827, “High-Throughput Screening of Five Compound Libraries for Anthelmintic Activity and Toxicity Leads to the Discovery of Two Flavonoid Compounds” (International Journal of Molecular Sciences, 2025).

Tested on: C. elegans
Details: Table S2, C. elegans SS assay, 110 μM, averages of 4 data points

| Molecule | Percentage of motility inhibition 0 h [%] | Percentage of motility inhibition 24 h [%] |
| --- | --- | --- |
| C[C@@H](O)[C@H]1C(=O)N2C(C(=O)O)=C(S[C@@H]3CN[C@H](C(=O)N(C)C)C3)[C@H](C)[C@H]12.O.O.O [Meropenem (trihydrate)] | 12 | 9 |
| COC[C@]12CN(C)C3[C@@H]4[C@H](OC)[C@H]1[C@@]3([C@@H](OC)C[C@H]2O)[C@@H]1C[C@@]2(O)[C@H](OC(=O)c3ccccc3)[C@@H]1[C@]4(O)[C@@H](O)[C@@H]2OC [Benzoylmesaconine] | 1 | 0 |
| Alpinetin | 1 | 14 |
| COc1cc2c(cc1O)[C@@H](Cc1ccc(O)c(Oc3ccc(C[C@@H]4c5cc(OC)c(OC)cc5CCN4C)cc3)c1)N(C)CC2 [Daurisoline] | 23 | 12 |
| C=C(C)C(=O)O[C@H]1[C@@H]2[C@H](C)C(=O)O[C@@H]2C[C@@H](C)[C@@H]2C=CC(=O)[C@]21C [Arnicolide D] | 16 | 25 |
| C=C[C@]1(C)C=C2CC[C@H]3[C@@](C)(CCC[C@@]3(C)C(=O)O)[C@@H]2CC1 [Continentalic acid] | 36 | 24 |
| CC(=O)OC(C)(C)CCC(=O)[C@](C)(O)[C@H]1[C@H](O)C[C@@]2(C)[C@@H]3CC=C4[C@@H](C[C@H](O)[C@@H](O)C4(C)C)[C@]3(C)C(=O)C[C@]12C [Cucurbitacin IIa] | 0 | 6 |
| COc1ccc(-c2cc(=O)c3c(O)cc(O[C@@H]4O[C@H](C(=O)O)[C@@H](O)[C@H](O)[C@H]4O)cc3o2)cc1O [DiosMetin 7‐O‐β‐D‐Glucuronide] | 4 | 21 |
| O=c1c(O[C@@H]2OC[C@H](O)[C@H](O)[C@H]2O)c(-c2ccc(O)c(O)c2)oc2cc(O)cc(O)c12 [Guaijaverin] | 0 | 25 |
| Vitamin K | 0 | 15 |
| Cc1cc(O)c(C(=O)N[C@@H](C(=O)N[C@@H]2C(=O)N3C(C(=O)[O-])=C(CSc4nnnn4C)CS[C@H]23)c2ccc(O)cc2)cn1.[Na+] [Cefpiramide (sodium)] | 0 | 7 |
| COc1cc(/C=C/C(=O)NCCc2ccc(O)cc2)ccc1O [N‐trans‐Feruloyltyramine] | 5 | 16 |
| CO/N=C(\C(=O)N[C@@H]1C(=O)N2C(C(=O)O)=C(Cn3ccc(=N)n3CCO)CS[C@H]12)c1csc(N)n1.O=S(=O)(O)O [Cefoselis (sulfate)] | 8 | 0 |
| C[C@H](CC[C@@H](O[C@@H]1O[C@H](CO[C@@H]2O[C@H](CO)[C@@H](O)[C@H](O)[C@H]2O)[C@@H](O)[C@H](O)[C@H]1O[C@@H]1O[C@H](CO)[C@@H](O)[C@H](O)[C@H]1O)C(C)(C)O)[C@H]1CC[C@@]2(C)[C@@H]3CC=C4[C@@H](CC[C@H](O[C@@H]5O[C@H](CO[C@@H]6O[C@H](CO)[C@@H](O)[C@H](O)[C@H]6O)[C@@H](O)[C@H](O)[C@H]5O)C4(C)C)[C@]3(C)C(=O)C[C@]12C [11-oxo-mogroside V] | 3 | 24 |
| CO/N=C(\C(=O)N[C@@H]1C(=O)N2C(C(=O)OCOC(=O)C(C)(C)C)=C(C)CS[C@H]12)c1csc(N)n1.Cl [Cefetamet pivoxil (hydrochloride)] | 55 | 17 |
| CC1(C)S[C@@H]2[C@H](NC(=O)COc3ccccc3)C(=O)N2[C@H]1C(=O)[O-].[K+] [Penicillin V (Potassium)] | 23 | 24 |

| Molecule | Percentage of motility inhibition 0 h [%] | Percentage of motility inhibition 24 h [%] |
| --- | --- | --- |
| COc1cc2c(cc1OC)[C@@H]1Cc3ccc(OC)c(OC)c3CN1CC2 [Rotundine] | – | 12 |
| O=C(O[C@@H]1Cc2c(O)cc(O)cc2O[C@@H]1c1cc(O)c(O)c(O)c1)c1cc(O)c(O)c(O)c1 [(‐)‐Epigalloca techin Gallate] | 9 | 6 |
| CC(=O)O[C@@H]1[C@@H](O)[C@H](O[C@H]2CC[C@]34C[C@]35CC[C@]3(C)[C@@H]([C@@]6(C)CC[C@@H](C(C)(C)O)O6)[C@@H](O)C[C@@]3(C)[C@@H]5C[C@H](O[C@@H]3O[C@H](CO)[C@@H](O)[C@H](O)[C@H]3O)[C@H]4C2(C)C)OC[C@H]1O [Isoastragaloside II] | 0 | 9 |
| CC(C)=CCC[C@](C)(O)[C@@H]1CC=C(C)CC1 [Levomenol] | 37 | 50 |
| [N-]=[N+]=NCc1cccc(/C(O)=C/C(=O)C(=O)O)c1 [HIV‐1 integrase inhibitor] | 22 | 10 |
| Nc1nc(=O)c2c([nH]1)NCC(CNc1ccc(C(=O)N[C@@H](CCC(=O)O)C(=O)O)cc1)N2C=O (mixture of isomers) [Folinic acid] | 11 | 20 |
| CC(C)=CCC[C@H](C)CC=O [(S)-(-)-Citronellal] | 18 | 61 |
| CC(=O)O[C@H]1CC[C@]2(C)C3=C(CC[C@H]2C1(C)C)[C@]1(C)C[C@@H](O)[C@H]([C@@H](CCC=C(C)C)C(=O)O)[C@@]1(C)CC3 [3-O-Acetyl-16α-hydroxytrametenolic acid] | 7 | 10 |
| CCOc1ccc2ccccc2c1C(=O)N[C@@H]1C(=O)N2[C@@H]1SC(C)(C)[C@@H]2C(=O)[O-].O.[Na+] [Nafcillin (sodium monohydrate)] | 12 | 2 |
| CC(=O)O[C@H]1CC/C(C)=C/CC/C(C)=C/C[C@]2(C(C)C)CC[C@@]1(C)O2 [Incensole Acetate] | 9 | 17 |
| Handelin | 0 | 14 |
| CC1(C)CC[C@]2(C(=O)O)[C@H](O)C[C@]3(C)C(=CC[C@@H]4[C@@]5(C)C[C@H](O)[C@H](O)C(CO)(CO)[C@@H]5CC[C@]43C)[C@@H]2C1 [Platicodigenin] | 0 | 0 |
| C1CNCCN1.O=C(O)CC(O)C(=O)O (stereo not shown) [Piperazine (malate)] | 26 | 14 |
| CC(C)=CCc1c(O)cc(O)c2c(=O)c(O[C@@H]3O[C@@H](C)[C@H](O)[C@@H](O)[C@H]3O)c(-c3ccc(O)cc3)oc12 [IKarisoside A] | 32 | 5 |
| CC[C@H]1OC(=O)C[C@@H](O)[C@H](C)[C@@H](O[C@@H]2O[C@H](C)[C@@H](O)[C@H](N(C)C)[C@H]2O)[C@@H](CCN2C[C@H](C)C[C@H](C)C2)C[C@@H](C)C(=O)/C=C/C(C)=C/[C@@H]1CO[C@@H]1O[C@H](C)[C@@H](O)[C@@H](OC)[C@H]1OC.O=P(O)(O)O [Tilmicosin (phosphate)] | 6 | 10 |
